Experimental data published in patent US20090023186A1, “USE OF VALPROIC ACID FOR ENHANCING PRODUCTION OF RECOMBINANT PROTEINS IN MAMMALIAN CELLS” (EXCELLGENE SA, priority 2007, published 2009).

Test system: HEK293E cells
Test: Transient IgG expression, batch titer by ELISA, VPA concentration series (Example 1)
Format: cell-based, Human
Settings: for Fold increase over control / Batch titer: IgG, day 5 after transfection; for Batch titer: 37° C.
Description: 10 million suspension-adapted HEK293E cells were resuspended in 0.5 ml of Ex-Cell 293 HEK 293 serum-free medium with 4 mmol/l L-glutamine (Cat. No. 14571C-1000 M; Lot No. 6A0093; SAFC Biosciences, Lenexa, Kans., USA, “Ex-Cell” medium; note: “Ex-Cell” medium-as used herein-refers to a medium comprising 4 mmol/l L-glutamine) in a 50-ml filter tube each (TPP AG, Trasadingen, Switzerland; Cat. No. 87050, Lot 20050174). In a separate set, 10 million suspension-adapted CHO DG44 cells were resuspended in 0.5 ml of ProCHO5 serum-free medium with 4 mmol/[…] hypoxanthine and 0.194 g/l thymidine (BioWhittaker (Lonza), Belgium; Cat. No. BE12-[…]; Lot No. 7 MB0040; “ProCHO5” medium; note: “ProCHO5” medium-as used herein-refers to a medium comprising 4 mmol/[…] hypoxanthine and 0.194 g/l thymidine) in a 50-ml filter tube each (TPP AG, Trasadingen, Switzerland; Cat. No. 87050, Lot 20050174). Then 12.5 μg plasmid DNA at a concentration of 1 μg/μl was added in each tube with the following composition 50% (6.25 μg) p-LC (SEQ ID NO: 1) 50% (6.25 μg) p-HC (SEQ ID NO: 3). Plasmid p-LC comprises the genetic information for the production of the light chain of an IgG antibody, plasmid p-HC comprises the genetic information for the production of the heavy chain of an IgG antibody. The particular vector constructs used in the present invention can also be obtained from the inventors. The inventors can be contacted via e-mail at […]. Moreover, commercial services do exist that produce any desired nucleotide sequence even comprising several kilobase pairs including complete expression cassettes in plasmid backgrounds (e.g., Invitrogen, Carlsbad, USA; Geneart, Germany.) Thus, providing the genetic sequence information of the plasmids should enable one of ordinary skill in the art to order the plasmids of the present invention at one of the commercial services listed. After shortly mixing the DNA with the cells by gentle shaking, 25 μg of 25-kd linear polyethyleneimine (“PEI”; Polysciences, Eppelheim, Germany; [2]) were added at a concentration of 1 μg/μl to each of the tubes. After shortly mixing by gentle shaking, the filter tubes containing the cells together with the DNA and PEI were transferred into an orbital shaker (Kühner Shaker Cabinet ISF-4-W, “Kühner shaker”, Kühner AG, Birsfelden, Switzerland), and the cells were incubated for 4 hours at 37° C. in a 5% CO2 atmosphere under shaking at 180 rpm. After that time, 4.5 ml of Ex-Cell medium were added to each of the filter tubes containing HEK 293 cells and 4.5 ml of Pro-CHO5 were added to each of the filter tubes containing CHO DG44 cells. Then, valproic acid was added to each of the tubes at the corresponding final concentration. The cells then were returned into the Kühner shaker and incubated at 37° C. in a 5% CO2 atmosphere under shaking at 180 rpm. […] The ELISA was performed as published in prior art. In short, Goat anti-human kappa light chain IgG (Biosource) was used for coating the ELISA-plates, and with AP-conjugated goat anti-human gamma chain IgG (Biosource) the synthesized IgG1 was detected. NPP was used as a substrate for the alkaline phosphatase. Absorption was measured at 405 nm against 490 nm using a microplate reader (SPECTRAmaxTM340; Molecular Devices, Palo Alto, Calif., USA).

CCCC(CCC)C(=O)O [VPA, valproic acid]
Fold increase over control (1.3 mmol/l final VPA): 2.2 fold | Batch titer (1.3 mmol/l final VPA): 33.0 ± 4.3 mg/L | Fold increase over control (2.5 mmol/l final VPA): 4.1 fold | Batch titer (2.5 mmol/l final VPA): 61.8 ± 5.7 mg/L | Fold increase over control (4 mmol/l final VPA): 5.3 fold | Batch titer (4 mmol/l final VPA): 79.5 ± 3.6 mg/L | Fold increase over control (5 mmol/l final VPA): 4.3 fold | Batch titer (5 mmol/l final VPA): 64.5 ± 6.5 mg/L | Fold increase over control (7.5 mmol/l final VPA): 1.8 fold | Batch titer (7.5 mmol/l final VPA): 27.0 ± 3.1 mg/L | Fold increase over control (11.3 mmol/l final VPA): 0.9 fold | Batch titer (11.3 mmol/l final VPA): 13.5 ± 2.1 mg/L | optimal final concentration (for batch titer, HEK293E cells, day 5): around 4 mmol/l
